Results taken from patent EP4745135A1 (Gluetacs Therapeutics (Shanghai) Co., Ltd., priority 2023, dated 2025).

Key:
[1] = tested on: GSPT1; experiment: Western blot, degradation of substrate protein in hPBMCs; format: cell-based, Human
[2] = target: T1, IKZF3 (Homo sapiens, UniProt Q96SW2+Q9UKT9); experiment: as above; format: cell-based
T1 construct: effects of the compounds of the present disclosure on the expression of target proteins in cells; endogenous in cells; host or cells: human PBMCs (Milecell Biotechnologies)

[3] = target: T2, CK1α (Homo sapiens, UniProt P48729+Q96SW2); experiment: as above; format: cell-based
T2 construct: effects of the compounds of the present disclosure on the expression of target proteins in cells; endogenous in cells; host or cells: human PBMCs (Milecell Biotechnologies)

[4] = target: T3, WEE1 (Homo sapiens, UniProt P30291+Q96SW2); experiment: as above; format: cell-based
T3 construct: effects of the compounds of the present disclosure on the expression of target proteins in cells; endogenous in cells; host or cells: human PBMCs (Milecell Biotechnologies)

[5] = target: T4, IKZF2 (Homo sapiens, UniProt Q96SW2+Q9UKS7); experiment: as above; format: cell-based
T4 construct: effects of the compounds of the present disclosure on the expression of target proteins in cells; endogenous in cells; host or cells: human PBMCs (Milecell Biotechnologies)

[6] = target: T5, IKZF1 (Homo sapiens, UniProt Q13422+Q96SW2); experiment: as above; format: cell-based
T5 construct: effects of the compounds of the present disclosure on the expression of target proteins in cells; endogenous in cells; host or cells: human PBMCs (Milecell Biotechnologies)

[7] = target: T6, human Cereblon WT GST-tagged protein (Homo sapiens, UniProt Q96SW2); experiment: CRBN-binding affinity, HTRF (CEREBLON BINDING kit); conditions: for inhibition at 0.5 µM: read-out: Inhibition Rate at 0.5 µM (%); for inhibition at 2 µM: read-out: Inhibition Rate at 2 µM (%)
T6 construct: purchased CISBIO 64BDCRBNPEH

[8] = tested on: Human breast cancer cell (MCF-7); experiment: Tumor cell proliferation inhibition (CellTiter-Meiluncell luminescent cell viability assay); conditions: MCF7, 96 h; for inhibition at 0.01 µM: read-out: Inhibition Rate at 10 nM (%); for inhibition at 0.5 µM: read-out: Inhibition Rate at 500 nM (%)
[9] = tested on: Human acute T lymphocytic leukemia cell (Molt4); experiment: as above; conditions: MOLT-4, 96 h
[10] = tested on: Human multiple myeloma cell (MM.1S); experiment: as above
[11] = tested on: Human myeloid monocytic leukemia cell (MV-4-11); experiment: as above; conditions: MV4-11, 96 h
[12] = 24 hours treatment, compounds at 50 nM and 500 nM (concentration behind the class not stated)
[13] = Western blot, 24 hours of compound treatment, compounds tested at 50 nM and 500 nM (concentration for the table not stated)
[14] = read-out: Inhibition Rate at 10 nM (%)
[15] = read-out: Inhibition Rate at 500 nM (%)

T1 sequence (Q9UKT9 whole entry): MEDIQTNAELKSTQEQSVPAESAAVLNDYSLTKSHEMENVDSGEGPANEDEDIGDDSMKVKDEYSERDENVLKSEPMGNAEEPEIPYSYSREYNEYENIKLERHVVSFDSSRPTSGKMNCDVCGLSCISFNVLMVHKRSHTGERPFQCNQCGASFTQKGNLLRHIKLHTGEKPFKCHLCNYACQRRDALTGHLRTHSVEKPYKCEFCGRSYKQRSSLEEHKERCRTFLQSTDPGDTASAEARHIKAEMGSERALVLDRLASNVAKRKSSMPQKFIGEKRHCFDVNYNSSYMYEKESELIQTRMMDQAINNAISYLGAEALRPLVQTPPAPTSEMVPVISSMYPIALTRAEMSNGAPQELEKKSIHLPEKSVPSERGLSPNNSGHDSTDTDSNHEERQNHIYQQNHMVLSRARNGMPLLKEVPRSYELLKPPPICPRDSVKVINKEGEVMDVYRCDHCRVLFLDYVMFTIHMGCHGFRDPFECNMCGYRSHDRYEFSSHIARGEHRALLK
T1 sequence (Q96SW2 whole entry): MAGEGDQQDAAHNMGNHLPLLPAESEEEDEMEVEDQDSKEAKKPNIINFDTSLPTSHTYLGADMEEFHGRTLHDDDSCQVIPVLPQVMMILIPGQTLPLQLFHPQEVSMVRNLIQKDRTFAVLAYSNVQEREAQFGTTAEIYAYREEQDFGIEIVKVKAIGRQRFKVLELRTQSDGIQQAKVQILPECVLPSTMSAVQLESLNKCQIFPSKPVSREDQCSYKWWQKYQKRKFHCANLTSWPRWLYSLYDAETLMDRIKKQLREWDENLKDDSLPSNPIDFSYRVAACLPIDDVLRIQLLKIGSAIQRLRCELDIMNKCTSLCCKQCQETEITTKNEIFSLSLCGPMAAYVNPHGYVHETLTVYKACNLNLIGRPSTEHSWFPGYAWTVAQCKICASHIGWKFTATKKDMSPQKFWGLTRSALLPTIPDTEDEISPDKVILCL
T1 sequence (Q16531 whole entry partner): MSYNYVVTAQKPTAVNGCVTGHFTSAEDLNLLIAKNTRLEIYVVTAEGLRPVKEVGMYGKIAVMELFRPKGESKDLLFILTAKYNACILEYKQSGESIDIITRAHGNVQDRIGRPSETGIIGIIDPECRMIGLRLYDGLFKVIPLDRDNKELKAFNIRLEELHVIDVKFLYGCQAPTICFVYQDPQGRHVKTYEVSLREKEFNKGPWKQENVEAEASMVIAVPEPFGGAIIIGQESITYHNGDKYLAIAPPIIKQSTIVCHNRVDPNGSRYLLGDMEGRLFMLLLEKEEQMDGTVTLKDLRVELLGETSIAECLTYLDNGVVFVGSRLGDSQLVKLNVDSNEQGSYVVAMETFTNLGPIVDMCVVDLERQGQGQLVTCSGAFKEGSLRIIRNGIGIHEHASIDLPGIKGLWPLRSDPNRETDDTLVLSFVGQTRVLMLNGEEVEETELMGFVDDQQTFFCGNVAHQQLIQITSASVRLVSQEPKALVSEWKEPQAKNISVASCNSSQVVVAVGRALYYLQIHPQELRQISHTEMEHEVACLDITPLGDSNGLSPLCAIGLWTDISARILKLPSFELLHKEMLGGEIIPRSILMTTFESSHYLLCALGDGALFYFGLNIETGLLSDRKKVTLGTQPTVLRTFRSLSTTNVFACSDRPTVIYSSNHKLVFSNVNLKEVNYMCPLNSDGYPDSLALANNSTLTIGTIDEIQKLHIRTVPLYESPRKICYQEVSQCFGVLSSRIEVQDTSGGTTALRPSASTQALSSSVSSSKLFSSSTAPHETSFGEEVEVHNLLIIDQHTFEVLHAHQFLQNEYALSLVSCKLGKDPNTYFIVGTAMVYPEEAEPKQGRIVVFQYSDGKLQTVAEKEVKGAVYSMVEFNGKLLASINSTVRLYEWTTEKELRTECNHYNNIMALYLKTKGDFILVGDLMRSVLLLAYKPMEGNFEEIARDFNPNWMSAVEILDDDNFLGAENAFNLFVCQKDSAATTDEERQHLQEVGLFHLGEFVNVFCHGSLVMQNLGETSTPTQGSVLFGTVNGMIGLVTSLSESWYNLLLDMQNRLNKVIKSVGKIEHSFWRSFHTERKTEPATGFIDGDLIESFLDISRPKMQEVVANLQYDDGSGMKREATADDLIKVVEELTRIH
T4 sequence (Q9UKS7 whole entry): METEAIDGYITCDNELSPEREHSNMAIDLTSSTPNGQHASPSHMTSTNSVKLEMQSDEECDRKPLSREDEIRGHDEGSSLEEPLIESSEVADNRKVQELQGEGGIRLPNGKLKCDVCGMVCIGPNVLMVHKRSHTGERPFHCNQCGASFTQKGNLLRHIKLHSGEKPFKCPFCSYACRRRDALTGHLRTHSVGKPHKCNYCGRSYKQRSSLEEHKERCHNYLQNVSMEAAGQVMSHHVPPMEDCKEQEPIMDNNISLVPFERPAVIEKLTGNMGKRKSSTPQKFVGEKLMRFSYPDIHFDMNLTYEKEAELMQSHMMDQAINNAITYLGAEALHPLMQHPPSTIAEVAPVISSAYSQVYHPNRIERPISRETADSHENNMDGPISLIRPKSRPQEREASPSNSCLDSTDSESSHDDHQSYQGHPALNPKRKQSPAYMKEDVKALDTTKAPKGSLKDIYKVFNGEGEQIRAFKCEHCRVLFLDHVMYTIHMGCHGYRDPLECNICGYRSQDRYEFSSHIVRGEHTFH
T4 sequence (Q96SW2 whole entry): as the sequence (Q96SW2 whole entry) above
T4 sequence (Q16531 whole entry partner): as the sequence (Q16531 whole entry partner) above
T6 sequence (Q96SW2 whole entry): as the sequence (Q96SW2 whole entry) above
T3 sequence (P30291 whole entry): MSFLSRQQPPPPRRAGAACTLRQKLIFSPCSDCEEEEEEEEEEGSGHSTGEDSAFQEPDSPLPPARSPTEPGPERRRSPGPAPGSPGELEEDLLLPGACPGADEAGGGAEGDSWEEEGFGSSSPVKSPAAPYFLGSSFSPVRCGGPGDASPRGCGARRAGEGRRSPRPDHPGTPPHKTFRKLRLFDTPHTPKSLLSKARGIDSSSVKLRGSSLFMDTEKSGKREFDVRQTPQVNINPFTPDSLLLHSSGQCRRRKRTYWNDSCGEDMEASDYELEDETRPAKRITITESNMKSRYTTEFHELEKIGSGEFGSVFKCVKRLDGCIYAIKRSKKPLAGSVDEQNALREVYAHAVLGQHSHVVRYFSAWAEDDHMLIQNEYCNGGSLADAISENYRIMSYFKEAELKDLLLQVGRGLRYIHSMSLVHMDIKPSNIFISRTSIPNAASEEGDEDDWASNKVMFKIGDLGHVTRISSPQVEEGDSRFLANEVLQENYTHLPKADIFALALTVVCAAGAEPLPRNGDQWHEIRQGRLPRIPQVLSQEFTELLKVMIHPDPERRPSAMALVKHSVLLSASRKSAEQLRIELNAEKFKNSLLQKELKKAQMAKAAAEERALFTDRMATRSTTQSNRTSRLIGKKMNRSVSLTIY
T3 sequence (Q96SW2 whole entry): as the sequence (Q96SW2 whole entry) above
T3 sequence (Q16531 whole entry partner): as the sequence (Q16531 whole entry partner) above
T2 sequence (P48729 whole entry): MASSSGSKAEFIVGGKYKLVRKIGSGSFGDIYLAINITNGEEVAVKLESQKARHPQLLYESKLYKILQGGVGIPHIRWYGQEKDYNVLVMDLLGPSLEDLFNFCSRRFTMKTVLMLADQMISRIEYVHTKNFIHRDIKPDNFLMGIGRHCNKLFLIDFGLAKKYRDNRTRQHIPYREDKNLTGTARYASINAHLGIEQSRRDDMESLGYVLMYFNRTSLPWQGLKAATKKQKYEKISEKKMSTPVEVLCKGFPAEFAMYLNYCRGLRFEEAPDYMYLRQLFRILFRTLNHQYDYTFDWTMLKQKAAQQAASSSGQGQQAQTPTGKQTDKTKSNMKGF
T2 sequence (Q96SW2 whole entry): as the sequence (Q96SW2 whole entry) above
T2 sequence (Q16531 whole entry partner): as the sequence (Q16531 whole entry partner) above
T5 sequence (Q13422 whole entry): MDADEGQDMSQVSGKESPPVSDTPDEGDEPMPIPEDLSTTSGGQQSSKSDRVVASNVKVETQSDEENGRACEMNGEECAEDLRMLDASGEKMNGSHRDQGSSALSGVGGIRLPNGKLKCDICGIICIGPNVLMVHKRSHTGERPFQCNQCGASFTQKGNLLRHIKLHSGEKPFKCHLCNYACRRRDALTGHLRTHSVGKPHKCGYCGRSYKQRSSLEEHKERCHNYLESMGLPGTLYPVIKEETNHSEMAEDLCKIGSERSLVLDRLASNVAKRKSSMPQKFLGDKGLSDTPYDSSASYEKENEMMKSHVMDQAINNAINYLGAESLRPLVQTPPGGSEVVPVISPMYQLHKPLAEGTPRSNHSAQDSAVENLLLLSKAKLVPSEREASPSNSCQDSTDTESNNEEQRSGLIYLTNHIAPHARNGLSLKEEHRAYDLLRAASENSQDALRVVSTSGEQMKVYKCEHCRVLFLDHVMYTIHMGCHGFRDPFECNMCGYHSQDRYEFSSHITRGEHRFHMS
T5 sequence (Q96SW2 whole entry): as the sequence (Q96SW2 whole entry) above
T5 sequence (Q16531 whole entry partner): as the sequence (Q16531 whole entry partner) above

Row | SMILES | inhibition at 0.5 µM [7] [%] | inhibition at 2 µM [7] [%] | GSPT1 substrate protein remaining % [1, 12] | IKZF3 substrate protein remaining % [2, 12] | CK1α substrate protein remaining % [3, 12] | Wee1 substrate protein remaining % [4, 12] | IKZF2 substrate protein remaining % [5, 12] | IKZF 1 substrate protein remaining % [6, 12] | inhibition at 0.01 µM [8] [%] | inhibition at 0.5 µM [8] [%] | other results
1 | O=C1CCC(N2Cc3c(CN4CC=C(c5ncnc6sccc56)CC4)cccc3C2=S)C(=O)N1 (centres unmarked) [GT-08937, 3-(4-((4-(thieno[2,3-d]pyrimidin-4-yl)-3,6-dihydropyridin-1(2H)-yl)methyl)-1-thioxoisoindolin-2-yl)piperidine-2,6-dione] | 60 to 80 | 80 to 100 | A (0% ≤ substrate protein remaining % ≤ 80%) | B (80%< substrate protein remaining %≤ 100%) | B (80%< substrate protein remaining %≤ 100%) | A (0% ≤ substrate protein remaining % ≤ 80%) | B (80%< substrate protein remaining %≤ 100%) | B (80%< substrate protein remaining %≤ 100%) | 30 to 40 | 40 to 50 | –
2 | Cc1nc(N2CCN(Cc3cccc4c3CN(C3CCC(=O)NC3=O)C4=S)CC2)c2c3c(sc2n1)CCCC3 (centres unmarked) [GT-08923, 3-(4-((4-(2-methyl-5,6,7,8-tetrahydrobenzo[4,5]thieno[2,3-d]pyrimidin-4-yl)piperazin-1-yl)methyl)-1-thioxoisoindolin-2-yl)piperidine-2,6-dione] | 30 to 40 | 80 to 100 | B (80%< substrate protein remaining %≤ 100%) | B (80%< substrate protein remaining %≤ 100%) | B (80%< substrate protein remaining %≤ 100%) | A (0% ≤ substrate protein remaining % ≤ 80%) | B (80%< substrate protein remaining %≤ 100%) | B (80%< substrate protein remaining %≤ 100%) | 70 to 80 | 70 to 80 | –
3 | Cc1nc(C2CCN(Cc3cccc4c3CN(C3CCC(=O)NC3=O)C4=S)CC2)c2c(-c3ccccc3)csc2n1 (centres unmarked) [GT-08931, 3-(4-((4-(2-methyl-5-phenylthieno[2,3-d]pyrimidin-4-yl)piperidin-1-yl)methyl)-1-thioxoisoindolin-2-yl)piperidine-2,6-dione] | 40 to 53 | 80 to 100 | – | – | – | – | – | – | 30 to 40 | 60 to 70 | –
4 | O=C1CCC(N2Cc3cc(CN4CCN(c5nc(N6CCOCC6)nc6c5SCC6)CC4)ccc3C2=S)C(=O)N1 (centres unmarked) [GT-09329, 3-(5-((4-(2-morpholino-6,7-dihydrothieno[3,2-d]pyrimidin-4-yl)piperazin-1-yl)methyl)-1-thioxoisoindolin-2-yl)piperidine-2,6-dione] | 60 to 80 | 80 to 100 | A (0% ≤ substrate protein remaining % ≤ 80%) | B (80%< substrate protein remaining %≤ 100%) | B (80%< substrate protein remaining %≤ 100%) | B (80%< substrate protein remaining %≤ 100%) | A (0% ≤ substrate protein remaining % ≤ 80%) | B (80%< substrate protein remaining %≤ 100%) | 20 to 30 | 40 to 50 | –
5 | O=C1CCC(N2Cc3c(CN4CCC(n5c(=O)[nH]c6cc(F)ccc65)CC4)cccc3C2=S)C(=O)N1 (centres unmarked) [GT-08843, 3-(4-((4-(5-fluoro-2-oxo-2,3-dihydro-1H-benzo[d]imidazol-1-yl)piperidin-1-yl)methyl)-1-thioxoisoindolin-2-yl)piperidine-2,6-dione] | 60 to 80 | 80 to 100 | – | – | – | – | – | – | 60 to 70 | 60 to 70 | GSPT1 substrate protein remaining % [1, 13]: B (80%< substrate protein remaining %≤ 100%); IKZF3 substrate protein remaining % [2, 13]: B (80%< substrate protein remaining %≤ 100%); CK1α substrate protein remaining % [3, 13]: B (80%< substrate protein remaining %≤ 100%); Wee1 substrate protein remaining % [4, 13]: A (0% ≤ substrate protein remaining % ≤ 80%); IKZF2 substrate protein remaining % [5, 13]: B (80%< substrate protein remaining %≤ 100%); IKZF 1 substrate protein remaining % [6, 13]: B (80%< substrate protein remaining %≤ 100%)
6 | O=C1CCC(N2Cc3cc(CN4CCC(c5c[nH]c6ncccc56)CC4)ccc3C2=S)C(=O)N1 (centres unmarked) [GT-09268, 3-(5-((4-(1H-pyrrolo[2,3-b]pyridin-3-yl)piperidin-1-yl)methyl)-1-thioxoisoindolin-2-yl)piperidine-2,6-dione] | 53 to 60 | 80 to 100 | A (0% ≤ substrate protein remaining % ≤ 80%) | B (80%< substrate protein remaining %≤ 100%) | B (80%< substrate protein remaining %≤ 100%) | B (80%< substrate protein remaining %≤ 100%) | B (80%< substrate protein remaining %≤ 100%) | B (80%< substrate protein remaining %≤ 100%) | – | – | inhibition at 0.01 µM [9, 14]: 40 to 50%; inhibition at 0.5 µM [9, 15]: 40 to 50%; inhibition at 0.01 µM ([10]; Homo sapiens, MM1.S, 96 h, read-out: Inhibition Rate at 10 nM (%)): 30 to 40%; Inhibition Rate at 500 nM (%) ([10]; MM.1S, 500 nM, 96 hours): la7; inhibition at 0.01 µM [11, 14]: 5 to 10%; inhibition at 0.5 µM [11, 15]: 60 to 80%

More lines, main results first:

Row | inhibition at 0.5 µM [7] [%] | inhibition at 2 µM [7] [%] | SMILES | GSPT1 substrate protein remaining % [1, 12] | IKZF3 substrate protein remaining % [2, 12] | CK1α substrate protein remaining % [3, 12] | Wee1 substrate protein remaining % [4, 12] | IKZF2 substrate protein remaining % [5, 12] | IKZF 1 substrate protein remaining % [6, 12] | inhibition at 0.01 µM [8] [%] | inhibition at 0.5 µM [8] [%] | other results
7 | 60 to 80 | 80 to 100 | O=C1CCC(N2Cc3c(CN4CC=C(c5n[nH]c6cc(F)ccc56)CC4)cccc3C2=S)C(=O)N1 (centres unmarked) [GT-08850, 3-(4-((4-(6-fluoro-1H-indazol-3-yl)-3,6-dihydropyridin-1(2H)-yl)methyl)-1-thioxoisoindolin-2-yl)piperidine-2,6-dione] | – | – | – | – | – | – | 40 to 50 | 50 to 60 | GSPT1 substrate protein remaining % [1, 13]: A (0% ≤ substrate protein remaining % ≤ 80%); IKZF3 substrate protein remaining % [2, 13]: B (80%< substrate protein remaining %≤ 100%); CK1α substrate protein remaining % [3, 13]: B (80%< substrate protein remaining %≤ 100%); Wee1 substrate protein remaining % [4, 13]: B (80%< substrate protein remaining %≤ 100%); IKZF2 substrate protein remaining % [5, 13]: B (80%< substrate protein remaining %≤ 100%); IKZF 1 substrate protein remaining % [6, 13]: B (80%< substrate protein remaining %≤ 100%)
8 | 60 to 80 | 80 to 100 | O=C1CCC(N2Cc3c(CN4CCC(c5ncnc6sccc56)CC4)cccc3C2=S)C(=O)N1 (centres unmarked) [GT-08928, 3-(4-((4-(thieno[2,3-d]pyrimidin-4-yl)piperidin-1-yl)methyl)-1-thioxoisoindolin-2-yl)piperidine-2,6-dione] | B (80%< substrate protein remaining %≤ 100%) | B (80%< substrate protein remaining %≤ 100%) | B (80%< substrate protein remaining %≤ 100%) | A (0% ≤ substrate protein remaining % ≤ 80%) | B (80%< substrate protein remaining %≤ 100%) | B (80%< substrate protein remaining %≤ 100%) | 40 to 50 | 60 to 70 | –
9 | 40 to 53 | 80 to 100 | O=C1CCC(N2Cc3c(CN4CC(n5cnc6cc(F)ccc65)C4)cccc3C2=S)C(=O)N1 (centres unmarked) [GT-08861, 3-(4-((3-(5-fluoro-1H-benzo[d]imidazol-1-yl)azetidin-1-yl)methyl)-1-thioxoisoindolin-2-yl)piperidine-2,6-dione] | B (80%< substrate protein remaining %≤ 100%) | B (80%< substrate protein remaining %≤ 100%) | B (80%< substrate protein remaining %≤ 100%) | A (0% ≤ substrate protein remaining % ≤ 80%) | B (80%< substrate protein remaining %≤ 100%) | B (80%< substrate protein remaining %≤ 100%) | 30 to 40 | 40 to 50 | –
10 | 40 to 53 | 53 to 60 | O=C1CCC(N2Cc3c(CN4CCC(c5ncnc6sc7c(c56)CCC7)CC4)cccc3C2=S)C(=O)N1 (centres unmarked) [GT-08934, 3-(4-((4-(6,7-dihydro-5H-cyclopenta[4,5]thieno[2,3-d]pyrimidin-4-yl)piperidin-1-yl)methyl)-1-thioxoisoindolin-2-yl)piperidine-2,6-dione] | A (0% ≤ substrate protein remaining % ≤ 80%) | A (0% ≤ substrate protein remaining % ≤ 80%) | B (80%< substrate protein remaining %≤ 100%) | A (0% ≤ substrate protein remaining % ≤ 80%) | B (80%< substrate protein remaining %≤ 100%) | A (0% ≤ substrate protein remaining % ≤ 80%) | 30 to 40 | 40 to 50 | –
